OC[C@H]1O[C@@H](Oc2ccc(O)cc2)[C@H](O)[C@@H](O)[C@@H]1O
solubility (mole fraction)
Settings | 283.15 K | 288.15 K | 293.15 K | 298.15 K | 303.15 K | 313.15 K | 323.15 K
in 1,4-dioxane | 0.0046 | – | 0.00491 | – | 0.00579 | 0.00696 | 0.00816
in acetone | 0.000601 | – | 0.000781 | – | 0.000962 | 0.00126 | 0.00161
in acetonitrile | 3.5e-05 | – | 7.2e-05 | – | 0.000145 | 0.000239 | 0.000365
in dichloromethane | 4e-06 | 7e-06 | 1e-05 | 1.3e-05 | 1.6e-05 | – | –
in ethanol | 0.00228 | – | 0.00274 | – | 0.00351 | 0.0044 | 0.00582
in ethyl acetate | 0.000155 | – | 0.00016 | – | 0.000166 | 0.000173 | 0.00018
in isopropanol | 0.000532 | – | 0.000795 | – | 0.00128 | 0.00172 | 0.00259
in methanol | 0.0112 | – | 0.0129 | – | 0.0151 | 0.0181 | 0.0226
in n-pentanol | 0.000338 | – | 0.000471 | – | 0.000689 | 0.000851 | 0.00119
in n-propanol | 0.000787 | – | 0.00102 | – | 0.00142 | 0.00185 | 0.00248
in sec-butanol | 0.000355 | – | 0.000691 | – | 0.000969 | 0.00167 | 0.00226
in water | 0.00524 | – | 0.00796 | – | 0.0108 | 0.0173 | 0.0283

Source: BigSolDB 2.1
